Here are results for 39 compounds from patent US9552457B2, “Reprogramming effector protein interactions to correct epigenetic defects in cancer” (BRITISH COLUMBIA CANCER AGENCY BRANCH, priority 2012, dated 2017).

Series [1] relates to SU-DHL-9 (MLL2 homozygous indel mutant) cell line. The experiment in a line: alamarBlue cell proliferation assay, SU-DHL-9 cell line. It counts as cell-based, human. To be noted: for activity at 10 µM: Homo sapiens, read-out: % Cell Proliferation; for activity as worded in SAR analysis (selective toxicity against SU-DHL-9): in words, restates Tables 3 and 4. Here is the method: Cell line DOHH2 was obtained from DSMZ. Pfeiffer was obtained from ATCC. SU-DHL-9 was obtained from Martin Dyer (University of Leicester, UK).
Compounds were initially solubilized in DMSO at a concentration of 10 mM. […] Ninety microliters of cells maintained at a concentration of 4×10^5 cells/mL were dispensed into wells of a MICROTEST™ 96-well Assay Plate, Optilux™ (BD). Ten microliters of the 100 μM compound solution were then added to the cells resulting in a final compound concentration of 10 μM. Each compound was tested in triplicate. […] Compounds were incubated with the cells in a 37° C. incubator with 5% CO2, humidified atmosphere for 48 hours before being subjected to the alamarBlue® cell proliferation assay (Life Technologies). Raw fluorescent units were corrected for background noise and normalized to the carrier-treated control.
For orientation: Alamar Blue is a resazurin reagent that responds to reducing activity.

Series [2] deals with WSU-DLCL2 Cells (EZH2 mutation Y641F). In words: Cell viability of lymphoma cell lines, WSU-DLCL2. It counts as cell-based, human. Also on record: Effect on Cell Viability (% survival) WSU-DLCL2 Cells: concentration or dose not given beside the values. Particulars: Table 5. Here is the method:
(§1) Compound 50 was tested for its effect on the viability of three lymphoma cell lines in vitro using standard methods. The cell lines tested were: DoHH-2 (wildtype for EZH2, MEF2B and MLL2); WSU-DLCL2 (EZH2 mutation Y641F (wildtype for MEF2B and MLL2)) and DB (EZH2 mutation Y641N, the MEF2B mutation D83V and three mutations in MLL2 (two of which lead to a truncated protein after residue Q2736 and the third allele has a 1 base pair deletion at residue P480)).
(§2) Compound 51 (NSC2540) was tested for its effect on the viability of four lymphoma cell lines in vitro using standard methods. The cell lines tested were DoHH-2, WSU-DLCL2, DB and SU-DHL-9 (EZH2 wildtype, MEF2B wildtype, MLL2 indel).

Series [3] relates to DoHH2 Cells (wildtype for EZH2, MEF2B and MLL2). In words: Cell viability of lymphoma cell lines, DoHH-2. The series is classed as cell-based. On the set-up: Effect on Cell Viability (% survival) DoHH2 Cells: concentration or dose not given beside the values. To be noted: Table 5. Here is the method:
as §1, §2

The mark [4] stands for this setting: Table 3, scaffold A, 10 μM, 48 hours, normalized to carrier-treated control, SU-DHL-9.
The mark [5] stands for this setting: Table 4, scaffold B, 10 μM, 48 hours, normalized to carrier-treated control, SU-DHL-9.

Read-outs that look alike come from different tables or passages of the source.

Take `C=CS(=O)(=O)c1ccc2ccccc2c1` [Compound 6, 2-ethenylsulfonylnaphthalene]: in series [1] (setting [4]), the activity at 10 µM stood at 69%. Besides, the “activity as worded in SAR analysis (selective toxicity against SU-DHL-9)” value (shortened to “activity … (selective toxicity against SU-DHL-9)”) in series [1] is reported as “only moderate activity”.
Regarding `C=C(CNC(C)(C)C)C(=O)c1ccccc1` [Compound 8, 2-[(tert-butylamino)methyl]-1-phenylprop-2-en-1-one], the activity at 10 µM in series [1] (setting [4]) was found to be 92%.
Consider `O=C1c2ccccc2-c2c(NC(=O)C(Cl)Cl)cccc21` [Compound 9, 2,2-dichloro-N-(9-oxofluoren-4-yl)acetamide], for which, in series [1] (setting [5]), the activity at 10 µM turned out to be 117%.
For the compound `C=C(CN1CCOCC1)C(=O)c1ccccc1` [Compound 11, 2-(morpholin-4-ylmethyl)-1-phenylprop-2-en-1-one], in series [1] (setting [4]), the activity at 10 µM was 26%.
As to `CC(=O)C(=O)c1ccccc1` [Compound 12], the activity at 10 µM in series [1] (48 h) worked out at 105%.
On to `C=CC(=O)c1ccccc1` [Compound 13], for which the activity at 10 µM in series [1] (setting [4]) was 137%.
As for `C=C(CN(C)C)C(=O)c1ccc(C(=O)C(=C)CN(C)C)cc1` [Compound 14], the activity at 10 µM in series [1] (setting [4]) came to 93%. Besides, the “activity … (selective toxicity against SU-DHL-9)” value in series [1] was “lacks activity”.
On to `C=C(CN(C)C)C(=O)c1ccc(C)cc1C` [Compound 15], for which the activity at 10 µM in series [1] (setting [4]) is 61%.
`C=C(CN(C)C)C(=O)c1ccccc1C` [Compound 16]: the activity at 10 µM in series [1] (setting [4]) amounted to 107%. In addition, the “activity … (selective toxicity against SU-DHL-9)” value in series [1] is “inactive or minimally active”.
With `COc1ccccc1C(=O)C(=O)CN(C)C` [Compound 17], in series [1] (setting [4]), the activity at 10 µM was found to be 89%. Further, the “activity … (selective toxicity against SU-DHL-9)” value in series [1] was “inactive or minimally active”.
`C=C(CN(C)C)C(=O)c1ccccc1` [Compound 19]: the activity at 10 µM in series [1] (setting [4]) was 77%. For the same compound, in series [1], the “activity … (selective toxicity against SU-DHL-9)” value is “inactive or minimally active”.
On to `C=C(CN(C)C)C(=O)c1ccc(OC)cc1` [Compound 20], for which the activity at 10 µM in series [1] (setting [4]) is 83%.
Still for that read-out and setting: with `C=CCCC(=C)c1ccccc1` [Compound 21] the figure was 105%.
Turning to `O=C1c2ccccc2-c2cccc(NC(=O)C(Cl)Cl)c21` [Compound 22], the activity at 10 µM in series [1] (setting [5]) stood at 86%. Also, the “activity … (selective toxicity against SU-DHL-9)” value in series [1] is on record as “partially active”.
In the same order, the values of `CC(=O)NC(CC(=O)Nc1cccc2c1C(=O)c1ccccc1-2)C(C)=O` (stereo not shown) [Compound 23] are 114% and “inactive”.
Take `CC(=O)Nc1cccc2c1C(=O)c1ccccc1C2=O` [Compound 24]: the activity at 10 µM in series [1] (setting [5]) was found to be 107%. For the same compound, the “activity … (selective toxicity against SU-DHL-9)” value in series [1] is “inactive”.
`OC(CBr)c1cc(-c2ccccc2)nc2ccccc12` (stereo not shown) [Compound 25]: the “Effect on Cell Viability (% survival) WSU-DLCL2 Cells” value (from here on “Effect … (% survival) WSU-DLCL2 Cells”) in series [2] is 60%. Besides, in series [3], the “Effect on Cell Viability (% survival) DoHH2 Cells” value (“Effect … (% survival) DoHH2 Cells” for short) came to 100%.
In the case of `CC(O)c1cc(-c2ccccc2)nc2ccccc12` (stereo not shown) [Compound 26], in series [2], the “Effect … (% survival) WSU-DLCL2 Cells” value is 90%. Besides, the “Effect … (% survival) DoHH2 Cells” value in series [3] is reported as 100%.
In the same order, the values of `O=C(CBr)c1cc(-c2ccc(Cl)cc2)nc2ccccc12` [Compound 27] are 40% and 90%.
`CC(=O)c1cc(-c2ccc(Cl)cc2)nc2ccccc12` [Compound 28]: the “Effect … (% survival) WSU-DLCL2 Cells” value in series [2] is given as 100%. Further, the “Effect … (% survival) DoHH2 Cells” value in series [3] was determined as 100%.
As for `CC(O)c1cc(-c2ccc(Cl)cc2)nc2ccccc12` (stereo not shown) [Compound 29], the “Effect … (% survival) WSU-DLCL2 Cells” value in series [2] came to 80%. In series [3], the “Effect … (% survival) DoHH2 Cells” value turned out to be 100%.
For the compound `O=C(CBr)c1cc(-c2ccc(Cl)cc2)nc2cc(Cl)ccc12` [Compound 30], in series [2], the “Effect … (% survival) WSU-DLCL2 Cells” value was found to be 40%. The “Effect … (% survival) DoHH2 Cells” value in series [3] is 60%.
`OC(CBr)c1cc(-c2ccc(Cl)cc2)nc2cc(Cl)ccc12` (stereo not shown) [Compound 31]: in series [2], the “Effect … (% survival) WSU-DLCL2 Cells” value was 100%. The “Effect … (% survival) DoHH2 Cells” value in series [3] amounted to 100%.
For `CC(=O)c1cc(-c2ccc(Cl)c(Cl)c2)nc2c(Cl)cc(Cl)cc12` [Compound 32], in series [2], the “Effect … (% survival) WSU-DLCL2 Cells” value was 90%. In addition, the “Effect … (% survival) DoHH2 Cells” value in series [3] is 100%.
Take `O=C(c1cc(-c2ccc(Cl)c(Cl)c2)nc2c(Cl)cc(Cl)cc12)C1NN1` [Compound 33]: the “Effect … (% survival) WSU-DLCL2 Cells” value in series [2] is 100%. The “Effect … (% survival) DoHH2 Cells” value in series [3] is recorded as 100%.
`OC(CBr)c1cc(-c2ccccc2)nc2c(Cl)cc(Cl)cc12` (stereo not shown) [Compound 34]: the “Effect … (% survival) WSU-DLCL2 Cells” value in series [2] is on record as 90%. Further, the “Effect … (% survival) DoHH2 Cells” value in series [3] is given as 100%.
For the compound `O=C(CBr)c1cc(-c2ccc(Cl)cc2)nc2c(-c3ccccc3)cccc12` [Compound 35], the “Effect … (% survival) WSU-DLCL2 Cells” value in series [2] is recorded as 17%. Besides, in series [3], the “Effect … (% survival) DoHH2 Cells” value was 20%.
Take `OC(CBr)c1cc(-c2ccc(Cl)cc2)nc2c(-c3ccccc3)cccc12` (stereo not shown) [Compound 36]: the “Effect … (% survival) WSU-DLCL2 Cells” value in series [2] worked out at 90%. For the same compound, the “Effect … (% survival) DoHH2 Cells” value in series [3] is recorded as 100%.
Consider `O=C(Cl)c1cc(-c2ccc(Cl)cc2)nc2c(-c3ccccc3)cccc12` [Compound 37], for which the “Effect … (% survival) WSU-DLCL2 Cells” value in series [2] is recorded as 80%. Besides, the “Effect … (% survival) DoHH2 Cells” value in series [3] is reported as 100%.
Regarding `OC(c1cc(-c2ccc(Cl)cc2)nc2cc(Cl)ccc12)N1CCCCC1` (stereo not shown) [Compound 38], the “Effect … (% survival) WSU-DLCL2 Cells” value in series [2] is 80%. The “Effect … (% survival) DoHH2 Cells” value in series [3] is 100%.
For `OC(c1cc(-c2ccc(Cl)cc2Cl)nc2cc(Cl)ccc12)C1CCCCN1` (stereo not shown) [Compound 39] the same measures were 20% and 60%.
Consider `OC(c1cc(-c2ccc(Cl)cc2)nc2ccccc12)C1CCCCN1` (stereo not shown) [Compound 40], for which the “Effect … (% survival) WSU-DLCL2 Cells” value in series [2] turned out to be 50%. Moreover, the “Effect … (% survival) DoHH2 Cells” value in series [3] was determined as 100%.
In the same order, the values of `OC(c1cc(-c2cccc(Cl)c2)nc2ccccc12)C1CCCCN1` (stereo not shown) [Compound 41] are 10% and 17%.
Regarding `OC(c1cc(-c2ccccc2)nc2c(Cl)cc(Cl)cc12)C1CCCCN1` (stereo not shown) [Compound 42], the “Effect … (% survival) WSU-DLCL2 Cells” value in series [2] is given as 10%. The “Effect … (% survival) DoHH2 Cells” value in series [3] is on record as 30%.
As to `OC(c1cc(-c2ccccc2)nc2cc(Cl)ccc12)C1CCCCN1` (stereo not shown) [Compound 43], the “Effect … (% survival) WSU-DLCL2 Cells” value in series [2] is 10%. Besides, the “Effect … (% survival) DoHH2 Cells” value in series [3] was 40%.
Consider `OC(c1cc(-c2ccccc2)nc2c1ccc1ccccc12)C1CCCCN1` (stereo not shown) [Compound 44], for which the “Effect … (% survival) WSU-DLCL2 Cells” value in series [2] is 10%. Further, the “Effect … (% survival) DoHH2 Cells” value in series [3] was 10%.
`CCN(CC)CC(O)c1cc(-c2ccc(Cl)cc2)nc2cc(Cl)ccc12` (stereo not shown) [Compound 45]: the “Effect … (% survival) WSU-DLCL2 Cells” value in series [2] came to 80%. In addition, the “Effect … (% survival) DoHH2 Cells” value in series [3] is 100%.
For the compound `CCCN(CCC)CC(O)c1cc(-c2ccc(Cl)cc2)nc2c(C)c(Cl)ccc12` (stereo not shown) [Compound 46], the “Effect … (% survival) WSU-DLCL2 Cells” value in series [2] was determined as 90%. Besides, in series [3], the “Effect … (% survival) DoHH2 Cells” value is on record as 100%.
Take `Cc1c(Cl)ccc2c(C(O)CN(C)C)cc(-c3ccc(Cl)cc3)nc12` (stereo not shown) [Compound 47]: the “Effect … (% survival) WSU-DLCL2 Cells” value in series [2] is given as 100%. Also, the “Effect … (% survival) DoHH2 Cells” value in series [3] was 100%.
